In patent US20060229358A1, “Pharmaceutical composition containing flavonoids” (Taipei Medical University, priority 2005, published 2006):

Assays:
[1] = test system: cytokines (IL-2, IL-4, IL-5, TNF-α, IFN-γ) in BALF of OVA-sensitized BALB/c mice; assay: Cytokines in BALF of OVA-sensitized mice (Assay III); assay type: in vivo, mouse; conditions: FIG. 3C
Experimental: (§1) Sensitization, airway challenge, and allergen provocation was carried out as described by Kanehiro et al with some modifications. The female BALB/c mice from 8 to 12 week of age were obtained from National Laboratory Animal Center (Taiwan), and maintained on diets free of ovalbumin (OVA). Mice were sensitized by an intraperitoneal (i.p.) injection of 20 μg of OVA emulsified in 2.25 mg aluminum hydroxide gel in a total volume of 100 μl on days 0 and 14. For comparison, some mice were not sensitized, but received sham injection. All mice were challenged via the airway by OVA (1% in saline) for 30 min on days 28, 29, and 30 by ultrasonic nebulization. […] AHR was assessed on day 73 (48 h after 1% OVA provocation) for each group. […] The AHR was measured in unrestrained animals by barometric plethysmography using a whole-body plethysmograph (WBP) (Buxco, Troy, N.Y., USA). Mice were placed into the main chamber of the WBP and nebulized first with phosphate buffer solution (PBS), then with increasing doses (6.25-50 mg/ml) of methacholine (MCh) for 3 min for each nebulization, followed by readings of breathing parameters for 3 min after each nebulization with determination of enhanced pause (Penh) values. […] The number of inflammatory cells was counted using a hemacytometer (Hausser Sci., Horsham, Pa., USA). […]

[2] = test system: inflammatory cells in BALF of OVA-sensitized BALB/c mice; assay: Inflammatory cells in BALF of OVA-sensitized mice (Assay III); assay type: in vivo, mouse; conditions: FIG. 3B
Experimental: as §1

[3] = test system: PDE4; assay: Inhibition of cyclic nucleotide PDE activity (Assay I), PDE4, incl. Lineweaver-Burk analysis; assay type: biochemical, guinea pig; conditions: from the IC50s of Table 2
Experimental: Under a protocol approved by the Animal Care and Use Committee of Taipei Medical University, five male guinea pigs (Hartley), weighing 500-600 g, were sacrificed. The lungs (15 g) or hearts (4 g) taken therefrom were chopped into small pieces and homogenized with a glass/teflon homogenizer (Glas-Col, Terre Haute, Ind., USA) in 10 volumes of cold medium (pH 6.5) containing 20 mM Bis-Tris, 2 mM benzamidine, 2 mM EDTA, 50 mM sodium chloride, 0.1 mM phenylmethanesulfonyl fluoride (PMSF), and 1 mM dithiothreitol. At 4° C., the homogenate was centrifuged at 170 g for 15 min, and the supernatant thereof was then re-centrifuged at 40,000 g for 30 min. […] The column was washed with two bed volumes of homogenate buffer to remove unbound material, where the resin beads therein will bind with proteins, such as PDE proteins. Proteins bound to the Q-sepharose beads were eluted with various concentrations (0.23, 0.34, 0.44, 0.69, and 1.00 M) of NaCl dissolved in homogenate buffer (for each concentration, 40-50 mL elution buffer were applied) at a flow rate of 30 ml/h. Fractions (3 ml each) were collected, and ethylene glycol (EG) was added thereto until a final concentration of 30% (v/v). And then the samples were frozen at −70° C.
The activities of PDE1-5 in the homogenate were measured with a two-step procedure according to the method of Thompson and Appleman, using cAMP with [^3H]-cAMP or cGMP with [^3 H]-cGMP as substrates. The PDE enzyme prepared (25 μl) with 10 μl inhibitor or the solvents therefor was incubated for 30 min at 37° C. in a total assay buffer, where the final volume of the assay is amounted to 100 μl. In accordance with the features of the PDE isozymes, the assay buffer contains 50 mM Tris/HCl (pH 7.4), 3 mM MgCl2, 1 mM dithiothreitol, and 0.05% BSA, and optionally contains 1 uM cAMP with 0.2 μCi [^3H]-cAMP as a substrate alone or in the presence of 0.1 unit calmodulin with 10 μM CaCl2, or 5 μM cGMP, and 1 μM cGMP with 0.2 μCi [^3H]-cGMP as another substrate alone or in the presence of 0.1 unit calmodulin with 10 μM CaCl2.
The PDE enzyme and the inhibitors (or their solvent) therefor were mixed and incubated on ice for 30 min previously, and then mixed with the assay buffer. The assay was initiated by transferring the mixture to a water bath at 37° C. Following the other 30 min incubation, the reaction was stopped by transferring the reaction vessel to a bath of boiling water for 3 min. After cooling on ice, 20 μl of the 1 mg/ml of Crotalus atrox venom was added to the reaction mixture, and the mixture was incubated at 37° C. for 10 min. The uncatalyzed substrates, such as cAMP, [^3H]-cAMP, cGMP, or [^3H]-cGMP were removed by the addition of 500 μl of a 1-in-1 Tris-HCl (40 mM) buffer suspension of Dowex resin (1×8-200) with incubation on ice for 30 min, since the bindings of the cyclic nucleotides and the resin. Each tube was then centrifuged for 2 min at 6000 rpm, and 100 μl of the supernatant was removed and counted by a β-counter for calculating the enzyme (PDEs) activity.
The dissociation constant of inhibitor binding (Ki) value was determined from the equation of apparent Km as a function of the inhibitor concentration (insert in A and B, respectively). The slope of the equation is equal to the value of […] (where KM is Michaelis constant). The amounts of the total proteins are calculated based on the analytical method reported by Bradford. In FIGS. 1A and 1B, all enzyme activities are shown as nmole of substrate per mg of proteins per minute (nmole/mg/min) hydrolyzed.
The IC50 values of flavonoids and various reference drugs were calculated using non-linear regression analysis by the software SigmaPlot 7.0 (Sigma Chemical, St. Louis Mo., USA).

Compound | level of IL-5 in BALF ([1]; 3 and 10 μmol/kg i.p.) | enhancement of IL-2, IL-4, IL-5, TNF-α and IFN-γ levels in BALF ([1]; 3~30 μmol/kg, i.p.) | enhancement of eosinophils in BALF ([2]; 3 μmol/kg i.p., compared with control group) | enhancement of total inflammatory cells, macrophages, lymphocytes, neutrophils and eosinophils in BALF ([2]; 10 and 30 μmol/kg i.p.) | selectivity among PDE1-5 [3]
COc1ccc(C2CC(=O)c3c(O)cc(O)cc3O2)cc1O (centres unmarked) [Hesperetin] | not suppressed | significantly suppressed | significantly suppressed | significantly suppressed | 
COc1cc(O)c2c(=O)c(-c3ccc(O)cc3)coc2c1 [Prunetin] |  |  |  |  | more-selective inhibition on PDE4
